Source: patent publication US8895733B2 (Novartis AG, priority 2010, dated 2014)

Each molecule was assayed against T1, Nav 1.7 (Homo sapiens, UniProt Q15858) (assay: Whole-cell voltage clamp electrophysiology, automated patch clamp (marker c in Table of Examples)). Conditions: marker c = Automated patch clamp data; read-out: Nav 1.7 activity.
T1 construct: expressed in transfected cells
Type: cell-based
Procedure, shortened: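 Human NaV1.7 currents were recorded by whole-cell automated patch clamp, on IonWorks Quattro or another automated platform, typically in perforated-patch configuration. The stimulus protocol was designed to probe block mainly of the inactivated state, with a typical sweep stepping from about −65 mV holding to −10 mV, then −100 mV.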

T1 sequence (Q15858 whole entry): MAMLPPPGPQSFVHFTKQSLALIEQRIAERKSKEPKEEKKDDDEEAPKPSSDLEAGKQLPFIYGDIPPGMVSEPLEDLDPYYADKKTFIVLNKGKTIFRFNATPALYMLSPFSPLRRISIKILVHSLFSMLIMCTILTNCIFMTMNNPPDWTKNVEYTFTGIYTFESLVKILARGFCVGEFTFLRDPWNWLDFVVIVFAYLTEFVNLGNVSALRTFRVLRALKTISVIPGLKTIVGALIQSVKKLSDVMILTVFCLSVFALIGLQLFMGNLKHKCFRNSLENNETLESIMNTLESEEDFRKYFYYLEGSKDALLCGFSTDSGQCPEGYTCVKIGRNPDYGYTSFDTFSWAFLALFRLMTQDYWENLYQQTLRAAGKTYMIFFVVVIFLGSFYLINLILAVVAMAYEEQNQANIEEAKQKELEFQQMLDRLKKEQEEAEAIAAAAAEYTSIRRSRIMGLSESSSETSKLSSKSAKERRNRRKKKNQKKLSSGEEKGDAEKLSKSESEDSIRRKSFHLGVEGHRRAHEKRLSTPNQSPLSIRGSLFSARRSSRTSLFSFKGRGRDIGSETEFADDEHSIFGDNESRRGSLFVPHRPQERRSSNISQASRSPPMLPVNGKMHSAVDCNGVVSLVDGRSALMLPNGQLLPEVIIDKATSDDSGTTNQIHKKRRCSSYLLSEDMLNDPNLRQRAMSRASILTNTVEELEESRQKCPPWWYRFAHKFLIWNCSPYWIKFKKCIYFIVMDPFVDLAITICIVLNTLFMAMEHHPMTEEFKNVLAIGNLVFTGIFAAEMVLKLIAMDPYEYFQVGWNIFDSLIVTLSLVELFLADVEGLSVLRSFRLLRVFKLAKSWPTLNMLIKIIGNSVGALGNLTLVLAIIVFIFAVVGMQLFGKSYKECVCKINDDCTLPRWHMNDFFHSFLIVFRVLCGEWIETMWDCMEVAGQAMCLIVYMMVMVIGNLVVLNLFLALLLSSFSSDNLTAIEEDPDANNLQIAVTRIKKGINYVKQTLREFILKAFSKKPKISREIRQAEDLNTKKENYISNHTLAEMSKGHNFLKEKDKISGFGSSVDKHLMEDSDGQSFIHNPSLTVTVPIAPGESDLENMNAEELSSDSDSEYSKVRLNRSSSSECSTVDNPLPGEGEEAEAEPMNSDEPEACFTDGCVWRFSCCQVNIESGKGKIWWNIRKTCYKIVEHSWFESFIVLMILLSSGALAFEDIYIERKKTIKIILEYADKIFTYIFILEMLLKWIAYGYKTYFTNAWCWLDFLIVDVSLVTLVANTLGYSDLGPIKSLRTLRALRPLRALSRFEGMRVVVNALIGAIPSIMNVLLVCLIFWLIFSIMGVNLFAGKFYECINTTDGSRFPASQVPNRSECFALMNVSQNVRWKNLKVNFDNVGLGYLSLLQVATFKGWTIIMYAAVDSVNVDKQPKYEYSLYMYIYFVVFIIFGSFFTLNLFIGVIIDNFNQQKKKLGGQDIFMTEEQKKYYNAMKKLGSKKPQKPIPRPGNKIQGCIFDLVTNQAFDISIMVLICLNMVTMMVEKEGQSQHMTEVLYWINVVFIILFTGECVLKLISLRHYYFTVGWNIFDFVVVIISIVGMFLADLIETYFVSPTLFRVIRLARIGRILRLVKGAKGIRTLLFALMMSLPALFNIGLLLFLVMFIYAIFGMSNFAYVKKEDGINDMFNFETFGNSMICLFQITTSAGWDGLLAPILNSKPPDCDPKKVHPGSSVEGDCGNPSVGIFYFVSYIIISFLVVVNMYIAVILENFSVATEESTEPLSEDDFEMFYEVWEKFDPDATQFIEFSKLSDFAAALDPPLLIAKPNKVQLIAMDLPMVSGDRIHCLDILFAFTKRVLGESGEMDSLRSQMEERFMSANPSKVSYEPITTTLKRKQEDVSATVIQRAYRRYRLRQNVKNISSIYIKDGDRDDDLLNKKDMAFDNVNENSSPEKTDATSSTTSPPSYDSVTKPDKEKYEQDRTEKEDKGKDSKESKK

SMILES | IC50 [nM]
NC(=O)c1nc(-c2nc(N)nc(Nc3cccc(F)c3)n2)no1 [Example 223, 3-{4-amino-6-[(3-fluorophenyl)amino]-1,3,5-triazin-2-yl}-1,2,4-oxadiazole-5-carboxamide] | 6500
Nc1nc(Nc2ccccc2)nc(-c2noc(N3C[C@@H]4[C@@H](COCC5CC5)[C@@H]4C3)n2)n1 [Example 393, 6-{5-[6-[(cyclopropylmethoxy)methyl]-3-azabicyclo[3.1.0]hexan-3-yl]-1,2,4-oxadiazol-3-yl}-2-N-phenyl-1,3,5-triazine-2,4-diamine] | 884
CN(c1ccccc1)c1nc(N)nc(-c2noc(C(=O)Nc3ccc(C(F)(F)F)nc3)n2)n1 [Example 263, 3-{4-amino-6-[methyl(phenyl)amino]-1,3,5-triazin-2-yl}-N-[6-(trifluoromethyl)pyridin-3-yl]-1,2,4-oxadiazole-5-carboxamide] | 6010
CN(c1ccccc1)c1nc(N)nc(-c2noc(N3CCC(O)(c4ccccc4)CC3)n2)n1 [Example 355, 1-(3-{4-amino-6-[methyl(phenyl)amino]-1,3,5-triazin-2-yl}-1,2,4-oxadiazol-5-yl)-4-phenylpiperidin-4-ol] | 2620
CC(C)S(=O)(=O)N1CCC(c2nc(-c3nc(N)nc(N(C)c4ccccc4)n3)no2)C1 (stereo not shown) [Example 201, 2-N-methyl-2-N-phenyl-6-{5-[1-(propane-2-sulfonyl)pyrrolidin-3-yl]-1,2,4-oxadiazol-3-yl}-1,3,5-triazine-2,4-diamine] | 3290
Cc1ccc(-c2nc(-c3nc(N)nc(N(C)c4ccccc4)n3)no2)cn1 [Example 283, 2-N-methyl-6-[5-(6-methylpyridin-3-yl)-1,2,4-oxadiazol-3-yl]-2-N-phenyl-1,3,5-triazine-2,4-diamine] | 1380
Nc1nc(Nc2ccccc2)nc(-c2noc(-c3ccc(COCC(F)(F)F)cn3)n2)n1 [Example 350, 2-N-phenyl-6-(5-{5-[(2,2,2-trifluoroethoxy)methyl]pyridin-2-yl}-1,2,4-oxadiazol-3-yl)-1,3,5-triazine-2,4-diamine] | 4
Nc1nc(Nc2cccc(F)c2)nc(-c2noc(C(=O)N3CCOCC3)n2)n1 [Example 232, 2-N-(3-fluorophenyl)-6-{5-[(morpholin-4-yl)carbonyl]-1,2,4-oxadiazol-3-yl}-1,3,5-triazine-2,4-diamine] | 9330
CN(C)C(=O)c1ccc(-c2nc(-c3nc(N)nc(N(C)c4ccccc4)n3)no2)cn1 [Example 478, 5-{3-[4-Amino-6-(methyl-phenyl-amino)-[1,3,5]triazin-2-yl]-[1,2,4]oxadiazol-5-yl}-pyridine-2-carboxylic acid dimethylamide] | 8810
CN(c1ccccc1)c1nc(N)nc(-c2noc(C3CCN(CCC(F)(F)F)C3)n2)n1 (stereo not shown) [Example 204, 2-N-methyl-2-N-phenyl-6-{5-[1-(3,3,3-trifluoropropyl)pyrrolidin-3-yl]-1,2,4-oxadiazol-3-yl}-1,3,5-triazine-2,4-diamine] | > 7830

Results, then the molecule that gave them:

IC50 [nM] | SMILES
366 | CN(c1cccc(F)c1)c1nc(N)nc(-c2noc(-c3ncccc3F)n2)n1 [Example 476, 2-N-(3-fluorophenyl)-6-[5-(3-fluoropyridin-2-yl)-1,2,4-oxadiazol-3-yl]-2-N-methyl-1,3,5-triazine-2,4-diamine]
3490 | CN(c1ccccc1)c1nc(N)nc(-c2noc(-c3cccnc3Cl)n2)n1 [Example 275, 6-[5-(2-chloropyridin-3-yl)-1,2,4-oxadiazol-3-yl]-2-N-methyl-2-N-phenyl-1,3,5-triazine-2,4-diamine]
597 | CN(c1ccccc1)c1nc(N)nc(-c2noc(N3CCC(OCc4ccccc4)CC3)n2)n1 [Example 338, 6-{5-[4-(benzyloxy)piperidin-1-yl]-1,2,4-oxadiazol-3-yl}-2-N-methyl-2-N-phenyl-1,3,5-triazine-2,4-diamine]
274 | CC(=O)c1ccc(-c2nc(-c3nc(N)nc(N(C)c4ccccc4)n3)no2)nc1 [Example 296, 1-[6-(3-{4-amino-6-[methyl(phenyl)amino]-1,3,5-triazin-2-yl}-1,2,4-oxadiazol-5-yl)pyridin-3-yl]ethan-1-one]

Same assay, conditions: marker c: Automated patch clamp data; read-out: Nav 1.7 activity

SMILES | IC50 [nM]
Cc1cccc(N(C)c2nc(N)nc(-c3noc(-c4cccs4)n3)n2)c1 [Example 93, N-Methyl-6-(5-thiophen-2-yl-[1,2,4]oxadiazol-3-yl)-N-m-tolyl-[1,3,5]triazine-2,4-diamine] | 931
CCOc1ccc(-c2nc(-c3nc(N)nc(N(C)c4ccccc4)n3)no2)cn1 [Example 148, 6-[5-(6-ethoxypyridin-3-yl)-1,2,4-oxadiazol-3-yl]-2-N-methyl-2-N-phenyl-1,3,5-triazine-2,4-diamine] | 323
CN(c1nc(N)nc(-c2noc(-c3ccc(OCC4CC4)nc3)n2)n1)c1ccccc1F [Example 134, 6-{5-[6-(cyclopropylmethoxy)pyridin-3-yl]-1,2,4-oxadiazol-3-yl}-2-N-(2-fluorophenyl)-2-N-methyl-1,3,5-triazine-2,4-diamine] | 67

The next lines start with the values.

IC50 [nM] | SMILES
4910 | CN(c1ccccc1)c1nc(N)nc(-c2noc(-c3ccc[nH]3)n2)n1 [Example 60, N-Methyl-N-phenyl-6-[5-(1H-pyrrol-2-yl)-[1,2,4]oxadiazol-3-yl]-[1,3,5]triazine-2,4-diamine]
395 | Nc1nc(-c2noc(-c3ccco3)n2)nc(N(CC2CC2)c2ccccc2)n1 [Example 121, N-Cyclopropylmethyl-6-(5-furan-2-yl-[1,2,4]oxadiazol-3-yl)-N-phenyl-[1,3,5]triazine-2,4-diamine]
